Experimental data taken from ChEMBL document CHEMBL5500336, “Recent advances in developing modified C14 side chain pleuromutilins as novel antibacterial agents” (Eur J Med Chem, 2024).
Values after ≈ are worked out from the molar mass of the structure shown.

Columns and labels:
Format in all cases: functional
Staphylococcus aureus [1] = experiment: Antibacterial activity against Methicillin-resistant Staphylococcus aureus assessed as bacterial growth inhibition
Staphylococcus aureus [2] = experiment: Antibacterial activity against Methicillin-sensitive Staphylococcus aureus assessed as bacterial growth inhibition
[3] = system: Staphylococcus epidermidis; experiment: Antibacterial activity against […] Staphylococcus epidermidis ATCC 35984 after 16 to 18 hrs by CLSI protocol based broth microdilution assay; settings: time 16-18 hrs
[4] = system: Staphylococcus epidermidis; experiment: Antibacterial activity against methicillin-sensitive Staphylococcus epidermidis ATCC 12228 assessed as reduction in bacterial growth incubated for 18 hrs by agar dilution method
Staphylococcus aureus [5] = experiment: Antibacterial activity against […] Staphylococcus aureus ATCC 25923 assessed as reduction in bacterial growth measured after 24 hrs by MH broth based assay
[6] = system: Staphylococcus epidermidis; experiment: Antibacterial activity against […] Staphylococcus epidermidis ATCC 51625 assessed as inhibition of bacterial growth measured after 24 hrs by MH broth based assay
Staphylococcus aureus [7] = experiment: Antibacterial activity against […] Staphylococcus aureus BNCC 337371 assessed as bacterial growth inhibition incubated for 18 to 24 hrs by NCCLS based assay; settings: time 18-24 hrs
Staphylococcus aureus [8] = experiment: Antimicrobial activity against […] Staphylococcus aureus ATCC 33591 assessed as inhibition of microbial growth measured after 20 to 24 hrs incubation by CLSI method; settings: time 20-24 hrs
Staphylococcus aureus [9] = experiment: Antimicrobial activity against […] Staphylococcus aureus ATCC 43300 assessed as inhibition of microbial growth measured after 20 to 24 hrs incubation by CLSI method; settings: time 20-24 hrs
Escherichia coli = experiment: Antibacterial activity against Escherichia coli ATCC 25922 assessed as bacterial growth inhibition measured after 18 hrs by CLSI based method
Streptococcus pneumoniae = experiment: Antibacterial activity against Streptococcus pneumoniae B1 assessed as reduction in bacterial growth
Staphylococcus aureus [10] = experiment: Antibacterial activity against […] Staphylococcus aureus ATCC 33592 assessed as bacterial growth inhibition
Staphylococcus aureus [11] = experiment: Antibacterial activity against […] Staphylococcus aureus ATCC 43300 assessed as reduction in microbial growth after 16 hrs by broth microdilution method
Staphylococcus aureus [12] = experiment: Antibacterial activity against […] Staphylococcus aureus ATCC 43300 assessed as inhibition of bacterial growth
Staphylococcus aureus [13] = experiment: Antibacterial activity against […] Staphylococcus aureus ATCC 43300 assessed as inhibition of bacterial growth measured after 24 hrs by MH broth based assay

## C=C[C@]1(C)C[C@@H](OC(=O)CSCc2csc(N)n2)[C@]2(C)[C@H](C)CC[C@]3(CCC(=O)[C@H]32)[C@@H](C)[C@@H]1O
Staphylococcus aureus [1]
  MIC: 0.063 µg/mL (≈ 0.124 µM)
Staphylococcus aureus [2]
  MIC: 0.063 µg/mL (≈ 0.124 µM)
[3]
  MIC: 0.063 µg/mL (≈ 0.124 µM)
[4]
  MIC: 0.063 µg/mL (≈ 0.124 µM)

## C=C[C@]1(C)C[C@@H](OC(=O)CSCc2csc(NC(=O)CN3CCCCC3)n2)[C@]2(C)[C@H](C)CC[C@]3(CCC(=O)[C@H]32)[C@@H](C)[C@@H]1O
Staphylococcus aureus [1]
  MIC: 0.063 µg/mL (≈ 0.0997 µM)
Staphylococcus aureus [2]
  MIC: 0.063 µg/mL (≈ 0.0997 µM)
[3]
  MIC: 0.063 µg/mL (≈ 0.0997 µM)
[4]
  MIC: 0.063 µg/mL (≈ 0.0997 µM)

## C=C[C@]1(C)C[C@@H](OC(=O)CSC2=NC(C)=C(C(=O)OCC)C(C)N2)[C@]2(C)[C@H](C)CC[C@]3(CCC(=O)[C@H]32)[C@@H](C)[C@@H]1O (stereo partly drawn)
Staphylococcus aureus [5]
  MIC: 0.125 µg/mL (≈ 0.217 µM)
[6]
  MIC: 0.06 µg/mL (≈ 0.104 µM)
Staphylococcus aureus [7]
  MIC: 0.06 µg/mL (≈ 0.104 µM)

## C=C[C@]1(C)C[C@@H](OC(=O)CSC2=NC(C)=C(C(=O)OC)C(C)N2)[C@]2(C)[C@H](C)CC[C@]3(CCC(=O)[C@H]32)[C@@H](C)[C@@H]1O (stereo partly drawn)
Staphylococcus aureus [5]
  MIC: 0.25 µg/mL (≈ 0.446 µM)
[6]
  MIC: 0.125 µg/mL (≈ 0.223 µM)
Staphylococcus aureus [7]
  MIC: 0.25 µg/mL (≈ 0.446 µM)

## C=C[C@]1(C)C[C@@H](OC(=O)CSC2=NC(C)=C(C(C)=O)C(C)N2)[C@]2(C)[C@H](C)CC[C@]3(CCC(=O)[C@H]32)[C@@H](C)[C@@H]1O (stereo partly drawn)
Staphylococcus aureus [5]
  MIC: 0.25 µg/mL (≈ 0.459 µM)
[6]
  MIC: 0.25 µg/mL (≈ 0.459 µM)
Staphylococcus aureus [7]
  MIC: 0.125 µg/mL (≈ 0.229 µM)

## C=C[C@]1(C)C[C@@H](OC(=O)CSc2nc(C)c(C(=O)OC)c(C)n2)[C@]2(C)[C@H](C)CC[C@]3(CCC(=O)[C@H]32)[C@@H](C)[C@@H]1O
Staphylococcus aureus [5]
  MIC: 0.016 µg/mL (≈ 0.0286 µM)
[6]
  MIC: 0.03 µg/mL (≈ 0.0537 µM)
Staphylococcus aureus [7]
  MIC: 0.015 µg/mL (≈ 0.0268 µM)

## C=C[C@]1(C)C[C@@H](OC(=O)CSc2nc(C)c(C(=O)OCC)c(C)n2)[C@]2(C)[C@H](C)CC[C@]3(CCC(=O)[C@H]32)[C@@H](C)[C@@H]1O
Staphylococcus aureus [5]
  MIC: ≤ 0.016 µg/mL
[6]
  MIC: 0.015 µg/mL (≈ 0.0262 µM)
Staphylococcus aureus [7]
  MIC: 0.015 µg/mL (≈ 0.0262 µM)

## C=C[C@]1(C)C[C@@H](OC(=O)CSc2nc(C)c(C(C)=O)c(C)n2)[C@]2(C)[C@H](C)CC[C@]3(CCC(=O)[C@H]32)[C@@H](C)[C@@H]1O
Staphylococcus aureus [5]
  MIC: 0.016 µg/mL (≈ 0.0295 µM)
[6]
  MIC: 0.03 µg/mL (≈ 0.0553 µM)
Staphylococcus aureus [7]
  MIC: 0.015 µg/mL (≈ 0.0276 µM)

## C=C[C@]1(C)C[C@@H](OC(=O)CN2CCN(c3ccc(C4CC(c5ccccc5[N+](=O)[O-])=NN4)cc3)CC2)[C@]2(C)[C@H](C)CC[C@]3(CCC(=O)[C@H]32)[C@@H](C)[C@@H]1O (stereo partly drawn)
Staphylococcus aureus [8]
  MIC: 2 µg/mL
Staphylococcus aureus [9]
  MIC: 2 µg/mL
Escherichia coli
  MIC: 2 µg/mL (≈ 2.81 µM)

## C=C[C@]1(C)C[C@@H](OC(=O)CN2CCN(c3ccc(C(=O)/C=C/c4ccc([N+](=O)[O-])cc4)cc3)CC2)[C@]2(C)[C@H](C)CC[C@]3(CCC(=O)[C@H]32)[C@@H](C)[C@@H]1O
Staphylococcus aureus [8]
  MIC: 0.5 µg/mL
Staphylococcus aureus [9]
  MIC: 0.5 µg/mL

## C=C[C@]1(C)C[C@@H](OC(=O)CN2CCN(c3ccc(C(=O)/C=C/c4ccc(N)cc4)cc3)CC2)[C@]2(C)[C@H](C)CC[C@]3(CCC(=O)[C@H]32)[C@@H](C)[C@@H]1O
Staphylococcus aureus [8]
  MIC: 0.5 µg/mL
Staphylococcus aureus [9]
  MIC: 0.5 µg/mL

## C=C[C@]1(C)C[C@@H](OC(=O)CSc2ccccc2N)[C@]2(C)[C@H](C)CC[C@]3(CCC(=O)[C@H]32)[C@@H](C)[C@@H]1O
Streptococcus pneumoniae
  MIC: 0.016 µg/mL (≈ 0.0329 µM)
Staphylococcus aureus [10]
  MIC: 0.5 µg/mL (≈ 1.03 µM)
Staphylococcus aureus [11]
  MIC: 0.016 µg/mL

## C=C[C@]1(C)C[C@@H](OC(=O)CSc2ccc(NC(=O)c3ccco3)cc2)[C@]2(C)[C@H](C)CC[C@]3(CCC(=O)[C@H]32)[C@@H](C)[C@@H]1O
Staphylococcus aureus [12]
  MIC: 0.015 µg/mL (≈ 0.0259 µM)
Staphylococcus aureus [13]
  MBC: 0.03 µg/mL (≈ 0.0517 µM)
